Reference: patent publication US20040224995A1 (University of North Texas Health Science Center at Fort …, priority 2003, published 2004)

What was measured:
[1] = system: ischemic lesion after MCAO; assay: Middle cerebral artery occlusion (MCAO) in ovariectomized female rats; format: in vivo, rat
Excerpt: (§1) Evaluating the role of cyclopentenone PGs and TZD's has also been completed in vivo. […] Troglitazone reduced the resulting infarct size by about 50% compared to vehicle (corn oil treated animals). This effective protection from a transient focal ischemic event by troglitazone argues that selective PPARγ agonists may be useful neuroprotectants during neurodegenerative events (e.g. stroke).
(§2) As shown below, the results from our experiments comprise results that indicate potent neuroprotective TZD's, as were used in neuronal cell lines are also effective in an animal model. Although not wanting to be bound by theory, the rat is the appropriate animal model for assessing the effects of drugs on neuronal damage, as the compounds to be evaluated are intended for use in humans. […] Female Sprague Dawley rats were purchased from Harlan in Indianapolis, Ind. Rats were housed in pairs in hanging, stainless steel cages in a temperature-controlled rooms (25±1° C.) with a daily light cycle (on from 0700 to 1900 h daily). All rats were allowed free access to laboratory chow and tap water. All procedures performed on animals will were reviewed and approved by the University of North Texas Health Science Center Institutional Animal Care and Use Committee (“ACUC”).
(§3) The female Sprague Dawley rats (225-250 g BW) were bilaterally ovariectomized using a dorsal approach. Animals were anesthetized with ketamine ([…]) and xylazine (10 mg/kg). A small (1 cm) cut was made through the skin, fascia, and muscle. […] Percent ischemic lesion area was calculated. * indicates p<0.05 vs. respective control group. […]
(§4) Each group of animals was decapitated 24 h after MCAO. […] Slices were then fixed in a 10% formalin and photographed by a digital camera (Sony MVC-FD5), and the ischemic lesion area were determined for each slice using the Image-Pro Plus software (Media Cybernectics, Silver Spring, Md.). Percent ischemic lesion area was calculated as the sum of the ischemic lesion area for the five slices divided by the total cross sectional area of these five slices.

[2] = as above; format: in vivo, rat; conditions: rats, doses given prior to MCA occlusion
Excerpt: as §1, §2, §3, §4

[3] = system: γ-glutamyl-cysteine synthetase (GCS) catalytic and regulatory subunits; assay: Western blot of GCS subunits in HT-22 cells; format: cell-based, mouse; conditions: compound 24 h before glutamate or H2O2, also independent of glutamate
Description: Determining γ-glutamylcysteine synthetase (“GCS”) protein levels was determined using Western blotting analysis, as shown in FIGS. 28 and 29. Antibodies against the heavy (catalytic) and light (regulatory) subunits, GCSH and GCSL, respectively, were ordered from Santa Cruz Biotechnology, Santa Cruz, Calif. Anti-β-actin polyclonal antibody was obtained from Biomedical Technologies Inc. (Stoughton, Mass.). Cyclopentenone PGs treated and untreated HT-22, C6, and RGC-5 cells were homogenized in a buffer containing 20 mM HEPES, pH 7.4, 2 mM […], 1 mM EGTA, […], 2 mm DTE, and […] aprotonin. Cells were sonicated to disrupt cell membranes, and Triton X-100 was added to a final concentration of 0.05% to solubilize membrane bound proteins. Equal amounts of proteins, as determined by the Bradford method, were separated by SDS-PAGE and transferred to polyvinylidene fluoride membrane (Millipore, Bedford, Mass.) in a BiORad (Hercules, Calif.) trans-Blot electrophoresis apparatus at 100 V for 2 hr using Towbin's buffer [25 mm Tris, pH 8.3, 192 mM glycine, and 20% methanol]. […] Equal amounts of proteins, as determined by the Bradford method, were separated by SDS-PAGE and transferred to PVDF membrane. […] […]

Structure (SMILES) | reduction of infarct size compared to vehicle ([1]; rats treated prior to MCA occlusion, vehicle corn oil) | reduction of ischemic lesion area compared to control animals ([1]; s.c. injection 12 h and 2 h before MCAO, 60 min occlusion, 24 h reperfusion) | brain concentrations [2] | expression of catalytic (C) and regulatory (R) subunits of GCS [3]
Cc1c(C)c2c(c(C)c1O)CCC(C)(COc1ccc(CC3SC(=O)NC3=O)cc1)O2 (stereo not shown) [troglitazone] | about 50% | about 50% | about 7 μM | –
CCCCC/C=C/C=C1/C(=O)C=C[C@@H]1C/C=C\CCCC(=O)O [15d-PGJ2, 15-deoxy-Δ^12,14-PGJ2] | – | – | – | upregulates
